Results published in ChEMBL document CHEMBL3217436, “Synthesis of new chromeno-annulated cis-fused pyrano[3,4-c]pyran derivatives via domino Knoevenagelhetero-DielsAlder reactions and their biological evaluation towards antiproliferative activity” (Medchemcomm, 2012).

How the values were obtained:
SK-N-SH = experiment: Antiproliferative activity against human SK-N-SH cells after 48 hrs by MTT assay; type: functional, cell-based
MDA-MB-231 = experiment: Antiproliferative activity against human MDA-MB-231 cells after 48 hrs by MTT assay; type: functional, cell-based; conditions: MDA-MB-231, 48 h
MRC5 = experiment: Antiproliferative activity against human MRC5 cells after 48 hrs by MTT assay; type: cell-based; conditions: MRC5, 48 h
A549 = experiment: Antiproliferative activity against human A549 cells after 48 hrs by MTT assay; type: functional, cell-based; conditions: A549, 48 h

| Structure (SMILES) | IC50 (SK-N-SH) | IC50 (MDA-MB-231) | IC50 (MRC5) | IC50 (A549) |
| --- | --- | --- | --- | --- |
| Cc1oc2c3c(ccc2c(=O)c1C)OC[C@H]1[C@@H]3c2c(c3ccccc3oc2=O)OC1(C)C | 1.05 µM | > 100 µM | 0.6 µM | 0.1 µM |
| Cc1oc2c3c(ccc2c(=O)c1C)OC[C@H]1[C@@H]3c2c(n(C)c(=O)n(C)c2=O)OC1(C)C | 1.06 µM | > 100 µM | > 100 µM | 0.1 µM |
| Cc1oc2c3c(ccc2c(=O)c1-c1ccccc1)OC[C@H]1[C@@H]3c2c(n(C)c(=O)n(C)c2=O)OC1(C)C | 10.5 µM | > 100 µM | > 100 µM | > 100 µM |
| Cc1oc2c3c(ccc2c(=O)c1C)OC[C@H]1[C@@H]3C2=C(CCCC2=O)OC1(C)C | > 100 µM | > 100 µM | > 100 µM | > 100 µM |
| Cc1coc2c3c(ccc2c1=O)OC[C@H]1[C@@H]3C2=C(CCCC2=O)OC1(C)C | > 100 µM | > 100 µM | > 100 µM | > 100 µM |
| Cc1oc2c3c(ccc2c(=O)c1-c1ccccc1)OC[C@H]1[C@@H]3C2=C(CCCC2=O)OC1(C)C | > 100 µM | > 100 µM | > 100 µM | > 100 µM |
| Cc1oc2c3c(ccc2c(=O)c1C)OC[C@H]1[C@@H]3C2=C(CC(C)(C)CC2=O)OC1(C)C | > 100 µM | > 100 µM | > 100 µM | > 100 µM |
| Cc1coc2c3c(ccc2c1=O)OC[C@H]1[C@@H]3C2=C(CC(C)(C)CC2=O)OC1(C)C | > 100 µM | > 100 µM | > 100 µM | > 100 µM |
| Cc1oc2c3c(ccc2c(=O)c1-c1ccccc1)OC[C@H]1[C@@H]3C2=C(CC(C)(C)CC2=O)OC1(C)C | > 100 µM | > 100 µM | > 100 µM | > 100 µM |
| Cc1oc2c3c(ccc2c(=O)c1C)OC[C@H]1[C@@H]3CC(=O)OC1(C)C | > 100 µM | > 100 µM | 0.6 µM | 0.09 µM |
| Cc1coc2c3c(ccc2c1=O)OC[C@H]1[C@@H]3CC(=O)OC1(C)C | > 100 µM | > 100 µM | > 100 µM | 11.2 µM |
| CC(=O)C1=C(C)OC(C)(C)[C@H]2COc3ccc4c(=O)c(C)c(C)oc4c3[C@@H]12 | 10.7 µM | > 100 µM | > 100 µM | > 100 µM |
| CCOC(=O)C1=C(C)OC(C)(C)[C@H]2COc3ccc4c(=O)c(C)c(C)oc4c3[C@@H]12 | 10.8 µM | > 100 µM | 0.9 µM | 10.9 µM |
| Cc1nn(-c2ccccc2)c2c1[C@@H]1c3c(ccc4c(=O)c(C)c(C)oc34)OC[C@@H]1C(C)(C)O2 | 10.6 µM | > 100 µM | > 100 µM | > 100 µM |
| Cc1nn(-c2ccccc2)c2c1[C@@H]1c3c(ccc4c(=O)c(-c5ccccc5)c(C)oc34)OC[C@@H]1C(C)(C)O2 | > 100 µM | > 100 µM | > 100 µM | > 100 µM |
